These results are taken from ChEMBL document CHEMBL1137255, “HIV-1 protease mutations and inhibitor modifications monitored on a series of complexes. Structural basis for the effect of the A71V mutation on the active site” (J Med Chem, 2006).

For orientation: Ki means a dissociation constant, usually derived from enzyme kinetics or from competition with a known ligand.

The structures appear in SMILES notation.

The target in experiment [1] is T1, Human immunodeficiency virus type 1 protease (Human immunodeficiency virus 1, UniProt Q72874). The experiment can be described thus: Inhibition of HIV1 protease I8 mutant.
The target in experiment [2] is T1, Human immunodeficiency virus type 1 protease. The experiment can be described thus: Inhibition of wild type HIV1 protease.

In the case of `CC(C)(C)OC(=O)N[C@@H](Cc1ccccc1)[C@@H](O)CN[C@@H](Cc1ccccc1)C(=O)N[C@@H](CCC(N)=O)C(=O)N[C@@H](Cc1ccccc1)C(N)=O`, the values for the inhibitory constant (Ki) in experiment [1] and in experiment [2] were 1000 nM and 33 nM, respectively.
Take `CC(C)(C)OC(=O)N[C@@H](Cc1ccccc1)[C@@H](O)C[C@@H](Cc1ccccc1)C(=O)N[C@@H](CCC(N)=O)C(=O)N[C@@H](Cc1ccccc1)C(N)=O`: the Ki stood at 0.26 nM in experiment [1] and 0.02 nM in experiment [2].
As for `CC(C)(C)OC(=O)N[C@@H](Cc1ccccc1)[C@@H](O)CN[C@@H](Cc1ccccc1)C(=O)N[C@@H](CCC(=O)O)C(=O)N[C@@H](Cc1ccccc1)C(N)=O`, the inhibitory constant (Ki) in experiment [1] came out at 86 nM; in experiment [2], 0.15 nM.
